According to article PMC10763615, “Identification and engineering of potent cyclic peptides with selective or promiscuous binding through biochemical profiling and bioinformatic data analysis” (RSC Chemical Biology, 2023):
pKd: −log10 of the molar value. Positions of bridges follow the written chain, without caps; N, C: chain ends. Residues, ends and D or L forms follow the SMILES beside them.

Tests used:
Assay type in all cases: binding
FGF-R4 ECD = molecular target: T1, FGF-R4 ECD (Homo sapiens, UniProt P22455); experiment: single concentration BLI of crude peptides; details: crude T18 selection 1 (1:1:1) peptides, single concentration BLI (Table S4); read-out: KD (4)
T1 construct: DNA constructs for the extracellular domain (ECD) of human FGF-; HPC4 (C); made in house; host or cells: HEK 293-6E
T1 sequence (P22455 22-369 limits assumed): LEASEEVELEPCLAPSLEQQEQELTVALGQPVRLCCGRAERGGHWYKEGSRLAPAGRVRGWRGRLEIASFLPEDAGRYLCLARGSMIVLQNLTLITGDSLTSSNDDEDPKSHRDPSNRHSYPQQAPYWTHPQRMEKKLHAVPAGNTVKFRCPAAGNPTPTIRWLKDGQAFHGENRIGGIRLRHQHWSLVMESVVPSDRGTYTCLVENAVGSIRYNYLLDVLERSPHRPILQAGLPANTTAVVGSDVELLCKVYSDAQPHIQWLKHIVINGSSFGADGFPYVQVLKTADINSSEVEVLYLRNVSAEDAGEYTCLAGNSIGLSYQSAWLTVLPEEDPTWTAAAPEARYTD
Experimental: (§1) KD affinity binding measurements were obtained by biolayer interferometry (BLI) instruments (Fortebio Octet HTX, or Sartorius Octet RH16 using either 8 or 16 channel mode.
For single concentration binding experiments, 50 μM peptide stocks in folding buffer were diluted 1:50 in mRNA display selection buffer (PBS pH7.4 supplemented with 0.05% Tween-20 and 0.01% BSA) in either a 96 well black plate, or a 384 well tilted bottom microplate (ForteBio). Biotinylated FGF-R protein was loaded onto Streptavidin-functionalised biosensors (ForteBio) and immersed into ~1 μM peptide to obtain association kinetics curves. Dissociation kinetics curves were obtained by subsequent immersion of ligand-associated loaded sensors into a 1:50 dilution of folding buffer in mRNA display selection buffer. Fitted KD data was adjusted for concentration as determined by UPLC-CAD. […]

FGF-R1C ECD = molecular target: T2, FGF-R1C ECD (Homo sapiens, UniProt P11362); experiment: biochemical; set-up: DNA constructs for the extracellular domain (ECD) of human FGF-; HPC4 (C); made in house; host or cells: HEK 293-6E
T2 sequence (P11362 22-376 limits assumed): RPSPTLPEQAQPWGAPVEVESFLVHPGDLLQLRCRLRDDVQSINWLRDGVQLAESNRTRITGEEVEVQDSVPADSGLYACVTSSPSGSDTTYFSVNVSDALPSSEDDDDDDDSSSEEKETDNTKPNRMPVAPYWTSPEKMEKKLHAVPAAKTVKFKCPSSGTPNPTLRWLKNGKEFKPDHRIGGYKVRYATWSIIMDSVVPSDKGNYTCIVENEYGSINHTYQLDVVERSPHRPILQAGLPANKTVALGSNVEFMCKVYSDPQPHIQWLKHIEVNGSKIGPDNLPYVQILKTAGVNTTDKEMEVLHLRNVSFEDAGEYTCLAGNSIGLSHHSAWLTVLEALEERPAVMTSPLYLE
Experimental: as §1
(§2) For single concentration binding experiments, 50 μM peptide stocks in folding buffer were diluted 1:50 in mRNA display selection buffer (PBS pH7.4 supplemented with 0.05% Tween-20 and 0.01% BSA) in either a 96 well black plate, or a 384 well tilted bottom microplate (ForteBio). Biotinylated FGF-R protein was loaded onto Streptavidin-functionalised biosensors (ForteBio) and immersed into ~1 μM peptide to obtain association kinetics curves. Dissociation kinetics curves were obtained by subsequent immersion of ligand-associated loaded sensors into a 1:50 dilution of folding buffer in mRNA display selection buffer. Fitted KD data was adjusted for concentration as determined by UPLC-CAD.
(§3) For accurate multi-concentration KD determination, dilution series of each peptide were made, and association and dissociation kinetics curves were obtained as above for each concentration to fit a multi-point KD binding model. Data collection and analysis was performed using the Octet Instrument Control […]
(§4) concentration assay kinetics curves shown in supplementary Figure S 19-24.

FGF-R3C ECD = molecular target: T3, FGF-R3C ECD (Homo sapiens, UniProt P22607); experiment: biochemical; set-up: DNA constructs for the extracellular domain (ECD) of human FGF-; HPC4 (C); made in house; host or cells: HEK 293-6E
T3 sequence (P22607 23-375 limits assumed): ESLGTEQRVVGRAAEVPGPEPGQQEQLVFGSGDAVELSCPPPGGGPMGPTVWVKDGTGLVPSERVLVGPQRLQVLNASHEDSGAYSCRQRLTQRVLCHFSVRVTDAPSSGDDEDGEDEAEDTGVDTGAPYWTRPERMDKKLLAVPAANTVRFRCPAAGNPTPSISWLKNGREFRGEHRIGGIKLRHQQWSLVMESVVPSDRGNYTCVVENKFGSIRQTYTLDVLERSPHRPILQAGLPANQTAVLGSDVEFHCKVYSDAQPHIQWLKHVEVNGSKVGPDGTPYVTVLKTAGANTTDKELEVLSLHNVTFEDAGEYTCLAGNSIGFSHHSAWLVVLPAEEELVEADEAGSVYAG
Experimental: as §1, §2, §3, §4

Compound	pKd (FGF-R4 ECD)	pKd (FGF-R1C ECD)	pKd (FGF-R3C ECD)
CSCC[C@H](NC(C)=O)C(=O)N[C@H]1CSSC[C@@H](C(=O)NCC(=O)N[C@@H](CO)C(=O)NCC(=O)N[C@@H](CO)C(=O)N[C@@H](CC(=O)O)C(=O)N[C@@H](Cc2ccc(O)cc2)C(=O)N[C@@H](CCCCN)C(=O)N[C@@H](CC(=O)O)C(=O)N[C@@H](CC(=O)O)C(=O)N[C@@H](CC(=O)O)C(=O)N[C@@H](CC(=O)O)C(=O)N[C@@H](CCCCN)C(N)=O)NC(=O)[C@H](Cc2c[nH]c3ccccc23)NC(=O)[C@H](CC(C)C)NC(=O)[C@H](CC(C)C)NC(=O)[C@H](Cc2ccc(O)cc2)NC(=O)[C@H](Cc2ccc(O)cc2)NC(=O)[C@H](Cc2ccccc2)NC(=O)[C@H](CC(C)C)NC(=O)[C@H](Cc2c[nH]cn2)NC(=O)[C@H](CCC(=O)O)NC(=O)[C@H](CCCCN)NC(=O)[C@H](C)NC1=O (Ac-MCAKEHLFYYLLWCGSGSDYKDDDDK-NH2; disulfide 2-14)	7.39	< 5.00	< 5.00
CC[C@H](C)[C@@H]1NC(=O)[C@H](CC(C)C)NC(=O)[C@H](Cc2ccccc2)NC(=O)[C@H](Cc2ccc(O)cc2)NC(=O)[C@H](CCCCN)NC(=O)[C@H](C)NC(=O)[C@@H](NC(=O)[C@H](CCSC)NC(C)=O)CSSC[C@@H](C(=O)NCC(=O)N[C@@H](CO)C(=O)NCC(=O)N[C@@H](CO)C(=O)N[C@@H](CC(=O)O)C(=O)N[C@@H](Cc2ccc(O)cc2)C(=O)N[C@@H](CCCCN)C(=O)N[C@@H](CC(=O)O)C(=O)N[C@@H](CC(=O)O)C(=O)N[C@@H](CC(=O)O)C(=O)N[C@@H](CC(=O)O)C(=O)N[C@@H](CCCCN)C(N)=O)NC(=O)[C@H](CCC(N)=O)NC(=O)[C@H](CCC(N)=O)NC(=O)[C@H](Cc2ccc(O)cc2)NC(=O)[C@H](C)NC(=O)[C@H](CCCNC(=N)N)NC(=O)[C@H](Cc2c[nH]c3ccccc23)NC1=O (Ac-MCAKYFLIWRAYQQCGSGSDYKDDDDK-NH2; disulfide 2-15)	8.00	< 5.00	< 5.00
CSCC[C@H](NC(C)=O)C(=O)N[C@H]1CSSC[C@@H](C(=O)NCC(=O)N[C@@H](CO)C(=O)NCC(=O)N[C@@H](CO)C(=O)N[C@@H](CC(=O)O)C(=O)N[C@@H](Cc2ccc(O)cc2)C(=O)N[C@@H](CCCCN)C(=O)N[C@@H](CC(=O)O)C(=O)N[C@@H](CC(=O)O)C(=O)N[C@@H](CC(=O)O)C(=O)N[C@@H](CC(=O)O)C(=O)N[C@@H](CCCCN)C(N)=O)NC(=O)[C@H](Cc2c[nH]cn2)NC(=O)[C@H](CC(C)C)NC(=O)[C@H](C(C)C)NC(=O)[C@H](CCC(N)=O)NC(=O)[C@H](Cc2c[nH]c3ccccc23)NC(=O)[C@H](Cc2ccc(O)cc2)NC(=O)[C@H](CCCNC(=N)N)NC(=O)[C@H](C(C)C)NC(=O)[C@H](Cc2ccc(O)cc2)NC(=O)[C@H](Cc2ccc(O)cc2)NC(=O)[C@H](C)NC(=O)[C@H](CC(=O)O)NC1=O (Ac-MCDAYYVRYWQVLHCGSGSDYKDDDDK-NH2; disulfide 2-15)	7.44	< 5.00	< 5.00
CC[C@H](C)[C@@H]1NC(=O)[C@H](Cc2ccc(O)cc2)NC(=O)[C@H](Cc2c[nH]c3ccccc23)NC(=O)[C@H](CCCCN)NC(=O)[C@H](C(C)C)NC(=O)[C@H](Cc2ccccc2)NC(=O)[C@H](CCCCN)NC(=O)[C@H](CC(=O)O)NC(=O)[C@@H](NC(=O)[C@H](CCSC)NC(C)=O)CSSC[C@@H](C(=O)NCC(=O)N[C@@H](CO)C(=O)NCC(=O)N[C@@H](CO)C(=O)N[C@@H](CCC(=O)O)C(=O)N[C@@H](CCC(=O)O)C(=O)NCC(=O)N[C@@H](CO)C(=O)NCC(=O)N[C@@H](CO)C(=O)N[C@@H](CC(=O)O)C(=O)N[C@@H](Cc2ccc(O)cc2)C(=O)N[C@@H](CCCCN)C(=O)N[C@@H](CC(=O)O)C(=O)N[C@@H](CC(=O)O)C(=O)N[C@@H](CC(=O)O)C(=O)N[C@@H](CC(=O)O)C(=O)N[C@@H](CCCCN)C(N)=O)NC(=O)[C@H](Cc2c[nH]cn2)NC(=O)[C@H](CCCNC(=N)N)NC(=O)[C@H](Cc2ccccc2)NC(=O)[C@H](C(C)C)NC1=O (Ac-MCDKFVKWYIVFRHCGSGSEEGSGSDYKDDDDK-NH2; disulfide 2-15)	9.00	< 5.00	< 5.00
CC[C@H](C)[C@@H]1NC(=O)[C@H](CCCCN)NC(=O)[C@H](Cc2ccc(O)cc2)NC(=O)[C@H](Cc2c[nH]c3ccccc23)NC(=O)[C@H](CC(C)C)NC(=O)[C@H](C(C)C)NC(=O)[C@H]([C@@H](C)O)NC(=O)[C@H](Cc2ccc(O)cc2)NC(=O)[C@H](CC(C)C)NC(=O)[C@H](CC(=O)O)NC(=O)[C@@H](NC(=O)[C@H](CCSC)NC(C)=O)CSSC[C@@H](C(=O)NCC(=O)N[C@@H](CO)C(=O)NCC(=O)N[C@@H](CO)C(=O)N[C@@H](CC(=O)O)C(=O)N[C@@H](Cc2ccc(O)cc2)C(=O)N[C@@H](CCCCN)C(=O)N[C@@H](CC(=O)O)C(=O)N[C@@H](CC(=O)O)C(=O)N[C@@H](CC(=O)O)C(=O)N[C@@H](CC(=O)O)C(=O)N[C@@H](CCCCN)C(N)=O)NC(=O)[C@H](CCC(=O)O)NC(=O)[C@H](CCCCN)NC(=O)[C@H](CCC(N)=O)NC1=O (Ac-MCDLYTVLWYKIQKECGSGSDYKDDDDK-NH2; disulfide 2-16)	7.72	7.68	< 5.00
CC[C@H](C)[C@@H]1NC(=O)[C@H](Cc2c[nH]c3ccccc23)NC(=O)[C@H](Cc2c[nH]c3ccccc23)NC(=O)[C@H](CCCNC(=N)N)NC(=O)[C@H](C)NC(=O)[C@H](Cc2ccc(O)cc2)NC(=O)[C@H](CCC(N)=O)NC(=O)[C@H](C)NC(=O)[C@H](CCCNC(=N)N)NC(=O)[C@H]([C@@H](C)CC)NC(=O)[C@H](CO)NC(=O)[C@H](CC(=O)O)NC(=O)[C@@H](NC(=O)[C@H](CCSC)NC(C)=O)CSSC[C@@H](C(=O)NCC(=O)N[C@@H](CO)C(=O)NCC(=O)N[C@@H](CO)C(=O)N[C@@H](CC(=O)O)C(=O)N[C@@H](Cc2ccc(O)cc2)C(=O)N[C@@H](CCCCN)C(=O)N[C@@H](CC(=O)O)C(=O)N[C@@H](CC(=O)O)C(=O)N[C@@H](CC(=O)O)C(=O)N[C@@H](CC(=O)O)C(=O)N[C@@H](CCCCN)C(N)=O)NC1=O (Ac-MCDSIRAQYARWWICGSGSDYKDDDDK-NH2; disulfide 2-15)	6.74	< 5.00	< 5.00
CC[C@H](C)[C@@H]1NC(=O)[C@H]([C@@H](C)O)NC(=O)[C@H](C(C)C)NC(=O)[C@H](Cc2ccc(O)cc2)NC(=O)[C@H](Cc2c[nH]c3ccccc23)NC(=O)[C@H](CC(=O)O)NC(=O)[C@@H](NC(=O)[C@H](CCSC)NC(C)=O)CSSC[C@@H](C(=O)NCC(=O)N[C@@H](CO)C(=O)NCC(=O)N[C@@H](CO)C(=O)N[C@@H](CC(=O)O)C(=O)N[C@@H](Cc2ccc(O)cc2)C(=O)N[C@@H](CCCCN)C(=O)N[C@@H](CC(=O)O)C(=O)N[C@@H](CC(=O)O)C(=O)N[C@@H](CC(=O)O)C(=O)N[C@@H](CC(=O)O)C(=O)N[C@@H](CCCCN)C(N)=O)NC(=O)[C@H](CCCCN)NC(=O)[C@H](CCCCN)NC(=O)[C@H](CC(C)C)NC(=O)[C@H](C(C)C)NC(=O)[C@H](CCCCN)NC(=O)[C@H](Cc2ccc(O)cc2)NC1=O (Ac-MCDWYVTIYKVLKKCGSGSDYKDDDDK-NH2; disulfide 2-15)	8.10	< 5.00	< 5.00
